According to patent publication US11738019B2, “Substituted heterocycles as antiviral agents” (ENANTA PHARMACEUTICALS, INC., priority 2019, dated 2023):

How the values were obtained:
[1] = compound induced cellular toxicity in HepG2 cells (ATPlite 1Step); assay type: cell-based; conditions: human, three days, concentration reducing total ATP levels by 50% relative to no drug controls
Method: At day 3, post seeding cells are treated with ATPlite 1Step according to the manufacturer's instructions.

HBV (2.2.15 cells) = experiment: HBV viral product reduction in 2.2.15 cells (qPCR / HBsAg or HBeAg ELISA); assay type: cell-based; conditions: Hepatitis B virus, 120 h, day 5 post treatment, concentration reducing viral product accumulation in cell lysates or supernatants by 50% relative to no drug controls
Method: 2.2.15 cells are passaged upon attaining confluency in DMEM/F12 media in the presence of 10% FBS, Penn/Strep, and 250 ug/mL G418. Novel compounds are 5 fold serially diluted in DMSO and added to 96 well plates containing 35,000 cells/well at a 1:200 dilution so that the final concentration of DMSO is 0.5%. On day 5, post treatment cell lysates and supernatants are harvested for analysis.
Cells are lysed using Agilent Sidestep Lysis buffer, diluted 1:100 and quantified via quantitative real time PCR. Commercially available ELISA kits are used to quantitate the viral proteins HBsAg (Alpco) or HBeAg (US Biological) by following the manufacturer's recommended protocol after diluting samples to match the linear range of their respective assays. Irrespective of readout, compound concentrations that reduce viral product accumulation in the cell lysates or supernatants by 50% relative to no drug controls (EC50) are reported; EC50 ranges are as follows: A<0.1 μM; B 0.1-1 μM; C>1 μM.

In the case of `Cn1cc(-c2cc3c(c4occc24)C[C@@H](C(C)(C)C)n2cc(C(=O)O)c(=O)cc2-3)cn1` [Example 15, (S)-5-(tert-butyl)-12-(1-methyl-1H-pyrazol-4-yl)-9-oxo-4,9-dihydro-5H-furo[2,3-f]pyrido[2,1-a]isoquinoline-8-carboxylic acid], the CC50 at 3 days [1] is reported as > 25 µM and the EC50 (HBV (2.2.15 cells)) is reported as < 0.1 µM.

In the case of `CC(C)(C)[C@@H]1Cc2c(cc(-c3cn[nH]c3)c3ccoc23)-c2cc(=O)c(C(=O)O)cn21` [Example 9, (S)-5-(tert-butyl)-9-oxo-12-(1H-pyrazol-4-yl)-4,9-dihydro-5H-furo[2,3-f]pyrido[2,1-a]isoquinoline-8-carboxylic acid], the CC50 at 3 days [1] is reported as > 25 µM and the EC50 (HBV (2.2.15 cells)) is reported as < 0.1 µM.

For `CC(C)(C)[C@@H]1Cc2c(cc(-c3cnsc3)c3ccoc23)-c2cc(=O)c(C(=O)O)cn21` [Example 11, (S)-5-(tert-butyl)-12-(isothiazol-4-yl)-9-oxo-4,9-dihydro-5H-furo[2,3-f]pyrido[2,1-a]isoquinoline-8-carboxylic acid], the CC50 at 3 days [1] was > 25 µM and the EC50 (HBV (2.2.15 cells)) was < 0.1 µM.
